Values quoted from earlier work as cited in US20070042999A1, “Phosphate derivatives of pharmaceutical products” (priority 2003, published 2007).

Assays:
[1] = in vivo
[2] = administered orally

Structure (SMILES)	bioavailability [1]	fraction of the administered dose available in the active form [2]
N[C@@H](Cc1cc(I)c(Oc2cc(I)c(O)c(I)c2)c(I)c1)C(=O)O [Thyroxine, thyroxine]	50-80%	–
C[C@]12CC[C@H]3[C@@H](CCC4=CC(=O)CC[C@@]43C)[C@@H]1CC[C@@H]2O [testosterone]	–	less than one sixth
